Test results reported in patent publication US10576062B2, “Carbamoyloxymethyl triazole cyclohexyl acids as LPA antagonists” (Bristol-Myers Squibb Company, priority 2016, dated 2020).

What follows are compounds tested against T1, human LPA1 (Homo sapiens, UniProt Q92633) (assay: LPA1 functional antagonist assay (LPA-induced calcium flux)). Conditions: read-out: hLPA1 IC50.
T1 construct: expressed in transfected cells; host or cells: Chinese hamster ovary (CHO) cells
Type: cell-based
Outline: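 CHO cells overexpressing human LPA1, loaded with calcium dye 30 min at 37° C, were preincubated 20 min at room temperature with compound (0.08 nM–5 μM, 0.5% DMSO) in HBSS/20 mM HEPES/0.1% fatty acid-free BSA.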

T1 sequence (Q92633 whole entry): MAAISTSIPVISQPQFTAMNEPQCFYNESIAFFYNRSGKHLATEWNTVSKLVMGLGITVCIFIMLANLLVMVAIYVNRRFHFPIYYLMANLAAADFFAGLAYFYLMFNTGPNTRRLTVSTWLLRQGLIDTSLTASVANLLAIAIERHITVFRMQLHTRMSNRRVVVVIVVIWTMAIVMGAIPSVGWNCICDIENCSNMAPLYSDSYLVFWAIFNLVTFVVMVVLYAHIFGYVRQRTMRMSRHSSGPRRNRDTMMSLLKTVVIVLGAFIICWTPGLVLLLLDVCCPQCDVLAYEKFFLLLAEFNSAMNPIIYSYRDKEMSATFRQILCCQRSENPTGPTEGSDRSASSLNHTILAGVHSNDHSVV

In order of rising IC50:
1. CCN(CC1CCC1)C(=O)OCc1c(-c2ccc(O[C@H]3CCC[C@H](C(=O)O)C3)c(C)n2)nnn1C [Example 113, (1S,3S)-3-((6-(5-((((cyclobutylmethyl)(ethyl)carbamoyl)oxy)methyl)-1-methyl-1H-1,2,3-triazol-4-yl)-2-methylpyridin-3-yl)oxy)cyclohexane-1-carboxylic acid]  0.015 µM
2. [2H]C([2H])([2H])n1nnc(-c2ccc(O[C@H]3CCC[C@H](C(=O)O)C3)cn2)c1COC(=O)N(C)CCCC [Example 112, (1S,3S)-3-((6-(5-(((butyl(methyl)carbamoyl)oxy)methyl)-1-(methyl-d3)-1H-1,2,3-triazol-4-yl)pyridin-3-yl)oxy)cyclohexane-1-carboxylic acid]  0.017 µM
3. Cc1nc(-c2nnn(C)c2COC(=O)N(C)CC2CC2)ccc1O[C@H]1CCC[C@H](C(=O)O)C1 [Example 115, (1S,3S)-3-((6-(5-((((cyclopropylmethyl)(methyl)carbamoyl)oxy)methyl)-1-methyl-1H-1,2,3-triazol-4-yl)-2-methylpyridin-3-yl)oxy)cyclohexane-1-carboxylic acid]  0.018 µM
4. Cc1nc(-c2nnn(C)c2COC(=O)N(C)Cc2ccccc2F)ccc1O[C@H]1CCC[C@H](C(=O)O)C1 [Example 98, (1S,3S)-3-((6-(5-((((2-fluorobenzyl)(methyl)carbamoyl)oxy)methyl)-1-methyl-1H-1,2,3-triazol-4-yl)-2-methylpyridin-3-yl)oxy)cyclohexane-1-carboxylic acid]  0.019 µM
5. CCCN(C)C(=O)OCc1c(-c2ccc(O[C@H]3CCC[C@H](C(=O)O)C3)c(C)n2)nnn1C [Example 104, (1S,3S)-3-((2-methyl-6-(1-methyl-5-(((methyl(propyl)carbamoyl)oxy)methyl)-1H-1,2,3-triazol-4-yl)pyridin-3-yl)oxy)cyclohexane-1-carboxylic acid]  0.019 µM
6. [2H]C([2H])([2H])n1nnc(-c2ccc(O[C@H]3CCC[C@H](C(=O)O)C3)cn2)c1COC(=O)N(C)C1CCCC1 [Example 111, (1S,3S)-3-((6-(5-(((cyclopentyl(methyl)carbamoyl)oxy)methyl)-1-(methyl-d3)-1H-1,2,3-triazol-4-yl)pyridin-3-yl)oxy)cyclohexane-1-carboxylic acid]  0.023 µM
7. CCCC(C)(C)N(C)C(=O)OCc1c(-c2ccc(O[C@H]3CCC[C@H](C(=O)O)C3)cn2)nnn1C [Example 78, (1S,3S)-3-((6-(1-methyl-5-(((methyl(2-methylpentan-2-yl)carbamoyl)oxy)methyl)-1H-1,2,3-triazol-4-yl)pyridin-3-yl)oxy)cyclohexane-1-carboxylic acid]  0.027 µM
8. [2H]C([2H])([2H])n1nnc(-c2ccc(O[C@H]3CCC[C@H](C(=O)O)C3)cn2)c1COC(=O)N(C)CC1CCC1 [Example 82, (1S,3S)-3-((6-(5-((((cyclobutylmethyl)(methyl)carbamoyl)oxy)methyl)-1-(methyl-d3)-1H-1,2,3-triazol-4-yl)pyridin-3-yl)oxy)cyclohexane-1-carboxylic acid]  0.028 µM
9. Cc1nc(-c2nnn(C)c2COC(=O)N(C)CC(C)C)ccc1O[C@H]1CCC[C@H](C(=O)O)C1 [Example 116, (1S,3S)-3-((6-(5-(((isobutyl(methyl)carbamoyl)oxy)methyl)-1-methyl-1H-1,2,3-triazol-4-yl)-2-methylpyridin-3-yl)oxy)cyclohexane-1-carboxylic acid]  0.029 µM
10. [2H]C([2H])([2H])n1nnc(-c2ccc(O[C@H]3CCC[C@H](C(=O)O)C3)cn2)c1COC(=O)N(C)CC1CC1 [Example 110, (1S,3S)-3-((6-(5-((((cyclopropylmethyl)(methyl)carbamoyl)oxy)methyl)-1-(methyl-d3)-1H-1,2,3-triazol-4-yl)pyridin-3-yl)oxy)cyclohexane-1-carboxylic acid]  0.031 µM
11. CCCC1(N(C)C(=O)OCc2c(-c3ccc(O[C@H]4CCC[C@H](C(=O)O)C4)c(C)n3)nnn2C)CC1 [Example 87, (1S,3S)-3-((2-methyl-6-(1-methyl-5-(((methyl(1-propylcyclopropyl)carbamoyl)oxy)methyl)-1H-1,2,3-triazol-4-yl)pyridin-3-yl)oxy)cyclohexane-1-carboxylic acid]  0.036 µM
12. CN(C(=O)OCc1c(-c2ccc(O[C@H]3CCC[C@H](C(=O)O)C3)cn2)nnn1C)C1(C)CC1 [Example 79, (1S,3S)-3-((6-(1-methyl-5-(((methyl(1-methylcyclopropyl)carbamoyl)oxy)methyl)-1H-1,2,3-triazol-4-yl)pyridin-3-yl)oxy)cyclohexane-1-carboxylic acid]  0.045 µM
13. CCC(CC)N(C)C(=O)OCc1c(-c2ccc(O[C@H]3CCC[C@H](C(=O)O)C3)cc2)nnn1C [Example 76, (1S,3S)-3-(4-(1-methyl-5-(((methyl(pentan-3-yl)carbamoyl)oxy)methyl)-1H-1,2,3-triazol-4-yl)phenoxy)cyclohexane-1-carboxylic acid]  0.047 µM
14. Cc1nc(-c2nnn(C)c2COC(=O)N(C)CCC(F)(F)F)ccc1O[C@H]1CCC[C@H](C(=O)O)C1 [Example 101, (1S,3S)-3-((2-methyl-6-(1-methyl-5-(((methyl(3,3,3-trifluoropropyl)carbamoyl)oxy)methyl)-1H-1,2,3-triazol-4-yl)pyridin-3-yl)oxy)cyclohexane-1-carboxylic acid]  0.049 µM
15. Cc1nc(-c2nnn(C)c2COC(=O)N(C)C23CC(C2)C3)ccc1O[C@H]1CCC[C@H](C(=O)O)C1 [Example 102, (1S,3S)-3-((6-(5-(((bicyclo[1.1.1]pentan-1-yl(methyl)carbamoyl)oxy)methyl)-1-methyl-1H-1,2,3-triazol-4-yl)-2-methylpyridin-3-yl)oxy)cyclohexane-1-carboxylic acid]  0.053 µM
16. Cc1nc(-c2nnn(C)c2COC(=O)N(C)C(C2CC2)C2CC2)ccc1O[C@H]1CCC[C@H](C(=O)O)C1 [Example 86, (1S,3S)-3-((6-(5-((((Dicyclopropylmethyl)(methyl)carbamoyl)oxy)methyl)-1-methyl-1H-1,2,3-triazol-4-yl)-2-methylpyridin-3-yl)oxy)cyclohexanecarboxylic acid]  0.054 µM
17. Cc1nc(-c2nnn(C)c2COC(=O)N(C)C2(C)CC2)ccc1O[C@H]1CCC[C@H](C(=O)O)C1 [Example 85, (1S,3S)-3-((2-methyl-6-(1-methyl-5-(((methyl(1-methylcyclopropyl)carbamoyl)oxy)methyl)-1H-1,2,3-triazol-4-yl)pyridin-3-yl)oxy)cyclohexane-1-carboxylic acid]  0.058 µM
18. CN(C(=O)OCc1c(-c2ccc(O[C@H]3CCC[C@H](C(=O)O)C3)cn2)nnn1C)C(C1CC1)C1CC1 [Example 80, (1S,3S)-3-((6-(5-((((Dicyclopropylmethyl)(methyl)carbamoyl)oxy)methyl)-1-methyl-1H-1,2,3-triazol-4-yl)pyridin-3-yl)oxy)cyclohexanecarboxylic acid]  0.06 µM
19. CCCC1(N(C)C(=O)OCc2c(-c3ccc(O[C@H]4CCC[C@H](C(=O)O)C4)cn3)nnn2C)CC1 [Example 81, (1S,3S)-3-((6-(1-methyl-5-(((methyl(1-propylcyclopropyl)carbamoyl)oxy)methyl)-1H-1,2,3-triazol-4-yl)pyridin-3-yl)oxy)cyclohexane-1-carboxylic acid]  0.061 µM
20. CCCC(C)(C)N(C)C(=O)OCc1c(-c2ccc(O[C@H]3CCC[C@H](C(=O)O)C3)c(C)n2)nnn1C [Example 84, (1S,3S)-3-((2-methyl-6-(1-methyl-5-(((methyl(2-methylpentan-2-yl)carbamoyl)oxy)methyl)-1H-1,2,3-triazol-4-yl)pyridin-3-yl)oxy)cyclohexanecarboxylic acid]  0.069 µM
21. Cc1nc(-c2nnn(C)c2COC(=O)N(C)C2(c3ccccc3)CC2)ccc1O[C@H]1CCC[C@H](C(=O)O)C1 [Example 100, (1S,3S)-3-((2-methyl-6-(1-methyl-5-(((methyl(1-phenylcyclopropyl)carbamoyl)oxy)methyl)-1H-1,2,3-triazol-4-yl)pyridin-3-yl)oxy)cyclohexane-1-carboxylic acid]  0.07 µM
22. CCC(CC)N(C)C(=O)OCc1c(-c2ccc(O[C@H]3CCC[C@H](C(=O)O)C3)c(C)n2)nnn1C [Example 83, (1S,3S)-3-((2-Methyl-6-(1-methyl-5-(((methyl(pentan-3-yl)carbamoyl)oxy)methyl)-1H-1,2,3-triazol-4-yl)pyridin-3-yl)oxy)cyclohexanecarboxylic acid]  0.092 µM
23. Cc1nc(-c2nnn(C)c2COC(=O)NCC2CCC2)ccc1O[C@H]1CCC[C@H](C(=O)O)C1 [Example 108, (1S,3S)-3-((6-(5-((((cyclobutylmethyl)carbamoyl)oxy)methyl)-1-methyl-1H-1,2,3-triazol-4-yl)-2-methylpyridin-3-yl)oxy)cyclohexane-1-carboxylic acid]  0.108 µM
24. Cc1nc(-c2nnn(C)c2COC(=O)N(C)CCc2ccccc2)ccc1O[C@H]1CCC[C@H](C(=O)O)C1 [Example 103, (1S,3S)-3-((2-methyl-6-(1-methyl-5-(((methyl(phenethyl)carbamoyl)oxy)methyl)-1H-1,2,3-triazol-4-yl)pyridin-3-yl)oxy)cyclohexane-1-carboxylic acid]  0.119 µM
25. CC(OC(=O)N(C)C1CCCC1)c1c(-c2ccc(O[C@H]3CCC[C@H](C(=O)O)C3)cc2)nnn1C (stereo partly drawn) [Example 94, (1S,3S)-3-(4-(5-(1-((cyclopentyl(methyl)carbamoyl)oxy)ethyl)-1-methyl-1H-1,2,3-triazol-4-yl)phenoxy)cyclohexane-1-carboxylic acid]  0.241 µM
26. Cc1nc(-c2nnn(C)c2COC(=O)NC23CC(C2)C3)ccc1O[C@H]1CCC[C@H](C(=O)O)C1 [Example 105, (1S,3S)-3-((6-(5-(((bicyclo[1.1.1]pentan-1-ylcarbamoyl)oxy)methyl)-1-methyl-1H-1,2,3-triazol-4-yl)-2-methylpyridin-3-yl)oxy)cyclohexane-1-carboxylic acid]  0.576 µM
27. Cc1nc(-c2nnn(C)c2COC(=O)N2CCOCC2)ccc1O[C@H]1CCC[C@H](C(=O)O)C1 [Example 114, (1S,3S)-3-((2-methyl-6-(1-methyl-5-(((morpholine-4-carbonyl)oxy)methyl)-1H-1,2,3-triazol-4-yl)pyridin-3-yl)oxy)cyclohexane-1-carboxylic acid]  0.643 µM
